# According to the kinase profiling compilation of Christmann-Franck et al. (2016):
# Tests used:
# Assay in all cases: KINOMEscan competition binding
# Conditions in all cases: compound 10.0 µM
# CAMK1D (human) = CAMK1D (human) (UniProt Q8IU85)
# CAMK2G (human) = CAMK2G (human) (UniProt Q13555)
# CDC42BPA (human) = CDC42BPA (human) (UniProt Q5VT25)
# CDK16 (human) = CDK16 (human) (UniProt Q00536)
# CDK2 (human) = CDK2 (human) (UniProt P24941)
# CSK (human) = CSK (human) (UniProt P41240)
# CSNK1A1 (human) = CSNK1A1 (human) (UniProt P48729)
# CSNK2A1 (human) = CSNK2A1 (human) (UniProt P68400)
# CSNK2A1 (human), sequence (P68400 whole entry, looked up): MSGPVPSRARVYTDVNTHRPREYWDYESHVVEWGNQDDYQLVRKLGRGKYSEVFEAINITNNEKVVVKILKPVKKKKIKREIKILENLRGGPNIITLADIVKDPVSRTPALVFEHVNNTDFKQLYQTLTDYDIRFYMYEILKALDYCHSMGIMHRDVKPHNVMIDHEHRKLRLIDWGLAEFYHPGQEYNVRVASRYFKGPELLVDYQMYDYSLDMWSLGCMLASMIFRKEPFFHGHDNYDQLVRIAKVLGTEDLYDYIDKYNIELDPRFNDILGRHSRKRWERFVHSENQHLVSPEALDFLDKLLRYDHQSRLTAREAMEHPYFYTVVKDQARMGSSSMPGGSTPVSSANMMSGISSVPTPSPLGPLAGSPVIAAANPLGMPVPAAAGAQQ
# DAPK1 (human) = DAPK1 (human) (UniProt P53355)
# EIF2AK2 (human) = EIF2AK2 (human) (UniProt P19525)
# EIF2AK2 (human), sequence (P19525 whole entry, looked up): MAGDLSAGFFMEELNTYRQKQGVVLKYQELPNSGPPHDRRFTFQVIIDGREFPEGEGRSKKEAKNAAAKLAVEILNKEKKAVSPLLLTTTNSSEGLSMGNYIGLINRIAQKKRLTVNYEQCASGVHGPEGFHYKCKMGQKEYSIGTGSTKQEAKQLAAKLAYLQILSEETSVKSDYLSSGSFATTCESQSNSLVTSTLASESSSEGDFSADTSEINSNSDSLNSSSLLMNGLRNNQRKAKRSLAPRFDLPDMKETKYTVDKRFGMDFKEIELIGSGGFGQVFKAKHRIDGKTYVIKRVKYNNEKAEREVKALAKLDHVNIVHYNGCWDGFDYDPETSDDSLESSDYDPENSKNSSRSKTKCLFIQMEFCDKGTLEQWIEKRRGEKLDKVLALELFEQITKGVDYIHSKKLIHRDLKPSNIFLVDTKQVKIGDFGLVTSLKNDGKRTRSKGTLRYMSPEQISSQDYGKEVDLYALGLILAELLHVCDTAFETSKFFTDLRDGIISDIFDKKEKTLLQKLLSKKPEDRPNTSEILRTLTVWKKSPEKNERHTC
# EPHA8 (human) = EPHA8 (human) (UniProt P29322)
# FES (human) = FES (human) (UniProt P07332)
# GRK1 (human) = GRK1 (human) (UniProt Q15835)
# [1] = target: JAK1 JH1 catalytic (human) (UniProt P23458)
# [2] = target: JAK1 JH2 pseudokinase (human) (UniProt P23458)
# LATS2 (human) = LATS2 (human) (UniProt Q9NRM7)
# LRRK2 (human) = LRRK2 (human) (UniProt Q5S007)
# LRRK2 (human), sequence (Q5S007 whole entry, looked up): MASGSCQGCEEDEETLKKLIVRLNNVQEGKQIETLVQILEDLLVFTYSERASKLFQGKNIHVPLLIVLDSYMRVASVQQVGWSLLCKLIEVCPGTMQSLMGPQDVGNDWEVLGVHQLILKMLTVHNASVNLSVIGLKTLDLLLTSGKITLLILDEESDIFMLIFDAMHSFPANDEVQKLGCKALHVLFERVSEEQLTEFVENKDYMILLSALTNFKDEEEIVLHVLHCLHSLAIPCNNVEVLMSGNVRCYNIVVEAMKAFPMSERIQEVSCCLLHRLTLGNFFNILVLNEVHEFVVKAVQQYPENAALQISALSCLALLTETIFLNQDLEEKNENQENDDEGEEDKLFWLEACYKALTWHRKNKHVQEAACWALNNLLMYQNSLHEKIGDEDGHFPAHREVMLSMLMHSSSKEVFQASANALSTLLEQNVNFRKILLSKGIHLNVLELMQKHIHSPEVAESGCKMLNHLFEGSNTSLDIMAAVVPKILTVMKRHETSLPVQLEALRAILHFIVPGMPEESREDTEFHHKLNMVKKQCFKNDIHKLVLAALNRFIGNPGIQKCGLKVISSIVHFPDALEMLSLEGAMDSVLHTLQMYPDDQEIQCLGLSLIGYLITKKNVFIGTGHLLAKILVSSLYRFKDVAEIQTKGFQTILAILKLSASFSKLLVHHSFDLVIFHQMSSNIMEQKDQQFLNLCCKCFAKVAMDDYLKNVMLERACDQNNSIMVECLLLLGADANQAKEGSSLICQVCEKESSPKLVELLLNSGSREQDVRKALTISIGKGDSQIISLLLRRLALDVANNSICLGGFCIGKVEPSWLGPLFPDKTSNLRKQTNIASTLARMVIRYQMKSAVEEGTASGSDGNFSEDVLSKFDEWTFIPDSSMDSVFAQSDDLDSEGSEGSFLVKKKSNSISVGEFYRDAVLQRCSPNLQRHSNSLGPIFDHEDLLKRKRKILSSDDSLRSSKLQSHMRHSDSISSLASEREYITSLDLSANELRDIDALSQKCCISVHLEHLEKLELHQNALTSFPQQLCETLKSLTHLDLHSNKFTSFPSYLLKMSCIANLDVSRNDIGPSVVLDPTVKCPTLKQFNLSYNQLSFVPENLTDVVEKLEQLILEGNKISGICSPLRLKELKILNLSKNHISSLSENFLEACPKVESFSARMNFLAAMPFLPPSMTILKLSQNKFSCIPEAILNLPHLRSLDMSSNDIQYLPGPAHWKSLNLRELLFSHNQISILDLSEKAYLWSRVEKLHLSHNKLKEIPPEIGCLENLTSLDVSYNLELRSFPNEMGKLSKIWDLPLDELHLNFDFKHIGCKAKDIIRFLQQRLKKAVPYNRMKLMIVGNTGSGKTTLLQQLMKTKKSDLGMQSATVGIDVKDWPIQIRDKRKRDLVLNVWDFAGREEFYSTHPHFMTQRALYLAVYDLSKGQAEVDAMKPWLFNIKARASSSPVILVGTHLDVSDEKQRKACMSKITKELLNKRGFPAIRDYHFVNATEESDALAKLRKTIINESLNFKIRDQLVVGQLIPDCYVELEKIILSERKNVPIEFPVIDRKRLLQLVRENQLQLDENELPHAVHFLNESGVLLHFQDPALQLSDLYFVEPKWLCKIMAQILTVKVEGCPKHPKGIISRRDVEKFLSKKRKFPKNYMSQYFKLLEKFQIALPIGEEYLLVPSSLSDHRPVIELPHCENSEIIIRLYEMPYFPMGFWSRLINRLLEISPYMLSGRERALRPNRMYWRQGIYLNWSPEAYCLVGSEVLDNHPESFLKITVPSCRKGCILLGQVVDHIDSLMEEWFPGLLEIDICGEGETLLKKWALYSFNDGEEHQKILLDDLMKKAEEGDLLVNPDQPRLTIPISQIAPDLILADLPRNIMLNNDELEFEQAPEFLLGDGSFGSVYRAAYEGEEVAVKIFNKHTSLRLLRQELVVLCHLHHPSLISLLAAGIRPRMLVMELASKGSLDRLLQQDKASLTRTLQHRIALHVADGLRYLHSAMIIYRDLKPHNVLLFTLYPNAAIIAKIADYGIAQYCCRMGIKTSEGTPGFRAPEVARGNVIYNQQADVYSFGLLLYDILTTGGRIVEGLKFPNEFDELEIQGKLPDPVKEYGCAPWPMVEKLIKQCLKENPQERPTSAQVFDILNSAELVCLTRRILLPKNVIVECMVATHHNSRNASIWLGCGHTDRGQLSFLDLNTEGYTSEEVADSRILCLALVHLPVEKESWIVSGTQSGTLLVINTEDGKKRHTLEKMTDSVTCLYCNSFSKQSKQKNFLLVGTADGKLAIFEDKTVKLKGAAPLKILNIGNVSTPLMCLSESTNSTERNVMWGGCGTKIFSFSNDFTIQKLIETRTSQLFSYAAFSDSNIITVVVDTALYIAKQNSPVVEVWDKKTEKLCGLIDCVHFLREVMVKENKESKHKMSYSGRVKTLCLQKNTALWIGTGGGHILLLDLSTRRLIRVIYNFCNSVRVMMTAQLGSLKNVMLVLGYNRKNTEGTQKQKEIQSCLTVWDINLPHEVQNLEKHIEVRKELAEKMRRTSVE
# MAK (human) = MAK (human) (UniProt P20794)
# MAP2K2 (human) = MAP2K2 (human) (UniProt P36507)
# MAP3K11 (human) = MAP3K11 (human) (UniProt Q16584)
# MAP3K13 (human) = MAP3K13 (human) (UniProt O43283)
# MAP4K2 (human) = MAP4K2 (human) (UniProt Q12851)
# [3] = tested on: MET (human), P08581 [M1250T]
# MYO3A (human) = MYO3A (human) (UniProt Q8NEV4)
# NEK6 (human) = NEK6 (human) (UniProt Q9HC98)
# PKN3 (M.tuberculosis) = PKN3 (M.tuberculosis) (UniProt Q6P5Z2)
# PKN3 (M.tuberculosis), sequence (Q6P5Z2 whole entry, looked up): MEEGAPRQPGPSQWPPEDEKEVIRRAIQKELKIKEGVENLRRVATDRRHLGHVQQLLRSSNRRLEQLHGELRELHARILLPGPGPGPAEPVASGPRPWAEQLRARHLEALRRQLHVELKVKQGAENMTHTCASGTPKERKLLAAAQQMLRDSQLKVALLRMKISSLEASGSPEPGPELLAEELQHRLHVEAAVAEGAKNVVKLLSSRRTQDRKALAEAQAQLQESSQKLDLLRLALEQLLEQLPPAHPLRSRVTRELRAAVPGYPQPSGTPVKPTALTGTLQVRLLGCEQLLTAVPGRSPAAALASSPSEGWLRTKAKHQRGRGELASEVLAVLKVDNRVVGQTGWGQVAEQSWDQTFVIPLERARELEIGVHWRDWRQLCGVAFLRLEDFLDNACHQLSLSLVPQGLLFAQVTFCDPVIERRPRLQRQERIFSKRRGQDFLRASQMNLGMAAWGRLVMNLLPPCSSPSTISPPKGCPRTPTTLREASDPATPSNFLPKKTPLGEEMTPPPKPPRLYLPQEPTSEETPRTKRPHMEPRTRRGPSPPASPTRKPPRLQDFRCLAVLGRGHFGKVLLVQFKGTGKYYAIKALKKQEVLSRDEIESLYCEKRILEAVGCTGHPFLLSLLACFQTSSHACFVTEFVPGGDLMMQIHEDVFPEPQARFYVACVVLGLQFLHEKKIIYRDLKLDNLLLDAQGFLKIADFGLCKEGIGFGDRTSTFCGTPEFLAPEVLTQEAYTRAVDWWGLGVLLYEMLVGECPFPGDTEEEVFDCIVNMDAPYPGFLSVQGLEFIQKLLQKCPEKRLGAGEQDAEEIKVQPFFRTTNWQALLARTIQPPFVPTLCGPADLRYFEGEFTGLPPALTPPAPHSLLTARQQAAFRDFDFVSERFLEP
# PRKCI (human) = PRKCI (human) (UniProt P41743)
# PRKCQ (human) = PRKCQ (human) (UniProt Q04759)
# RPS6KA5 KD2 (human) = RPS6KA5 KD2 (human) (UniProt O75582)
# SGK110 (human) = SGK110 (human) (UniProt P0C264)
# SGK110 (human), sequence (P0C264 whole entry, looked up): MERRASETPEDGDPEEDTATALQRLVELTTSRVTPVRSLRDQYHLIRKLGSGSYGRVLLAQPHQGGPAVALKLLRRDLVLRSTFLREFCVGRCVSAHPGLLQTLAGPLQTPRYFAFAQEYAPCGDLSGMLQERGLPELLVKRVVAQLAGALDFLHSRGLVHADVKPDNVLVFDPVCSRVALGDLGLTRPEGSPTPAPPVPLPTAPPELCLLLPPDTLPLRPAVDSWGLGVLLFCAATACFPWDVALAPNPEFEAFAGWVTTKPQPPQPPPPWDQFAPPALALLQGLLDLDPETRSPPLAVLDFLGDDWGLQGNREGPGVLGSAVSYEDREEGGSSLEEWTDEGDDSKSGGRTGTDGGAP
# SRPK2 (human) = SRPK2 (human) (UniProt P78362)
# STK17A (human) = STK17A (human) (UniProt Q9UEE5)
# TSSK1B (human) = TSSK1B (human) (UniProt Q9BXA7)
# [4] = target: TYK2 JH1 catalytic (human) (UniProt P29597)
# VRK2 (human) = VRK2 (human) (UniProt Q86Y07)
# BRAF (human) = BRAF (human) (UniProt P15056)
# CAMK1D (human), sequence (Q8IU85 whole entry, looked up): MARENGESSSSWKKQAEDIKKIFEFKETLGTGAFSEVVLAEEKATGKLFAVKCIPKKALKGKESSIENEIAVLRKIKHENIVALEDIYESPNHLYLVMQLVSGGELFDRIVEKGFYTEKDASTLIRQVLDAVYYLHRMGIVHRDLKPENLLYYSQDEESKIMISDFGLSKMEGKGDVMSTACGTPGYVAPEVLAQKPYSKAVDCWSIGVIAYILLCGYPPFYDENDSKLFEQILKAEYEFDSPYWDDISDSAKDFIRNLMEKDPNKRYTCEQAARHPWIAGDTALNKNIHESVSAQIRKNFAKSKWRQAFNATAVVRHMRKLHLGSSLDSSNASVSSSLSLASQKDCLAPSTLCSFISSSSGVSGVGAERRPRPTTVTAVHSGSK
Structure (SMILES),"kinase still bound, per cent of control (CAMK1D (human)) [%]","kinase still bound, per cent of control (CAMK2G (human)) [%]","kinase still bound, per cent of control (CDC42BPA (human)) [%]","kinase still bound, per cent of control (CDK16 (human)) [%]","kinase still bound, per cent of control (CDK2 (human)) [%]","kinase still bound, per cent of control (CSK (human)) [%]","kinase still bound, per cent of control (CSNK2A1 (human)) [%]","kinase still bound, per cent of control (DAPK1 (human)) [%]","kinase still bound, per cent of control (EIF2AK2 (human)) [%]","kinase still bound, per cent of control (EPHA8 (human)) [%]","kinase still bound, per cent of control (FES (human)) [%]","kinase still bound, per cent of control (GRK1 (human)) [%]","kinase still bound, per cent of control [1] [%]","kinase still bound, per cent of control [2] [%]","kinase still bound, per cent of control (LATS2 (human)) [%]","kinase still bound, per cent of control (LRRK2 (human)) [%]","kinase still bound, per cent of control (MAK (human)) [%]","kinase still bound, per cent of control (MAP2K2 (human)) [%]","kinase still bound, per cent of control (MAP3K11 (human)) [%]","kinase still bound, per cent of control (MAP3K13 (human)) [%]",further results
N#Cc1cc(-c2ccnc(Nc3ccc(-n4cnc(-c5cccnc5)n4)cc3)n2)cc(N2CCOCC2)c1,87,32,68,6.8,30,66,2.2,60,48,93,91,100,59,0.95,62,94,49,62,46,100,"kinase still bound, per cent of control (CSNK1A1 (human)): 60%; kinase still bound, per cent of control (MAP4K2 (human)): 10%; kinase still bound, per cent of control [3]: 23%; kinase still bound, per cent of control (MYO3A (human)): 69%; kinase still bound, per cent of control (NEK6 (human)): 76%; kinase still bound, per cent of control (PKN3 (M.tuberculosis)): 6.3%; kinase still bound, per cent of control (PRKCI (human)): 88%; kinase still bound, per cent of control (PRKCQ (human)): 100%; kinase still bound, per cent of control (RPS6KA5 KD2 (human)): 100%; kinase still bound, per cent of control (SGK110 (human)): 78%; kinase still bound, per cent of control (SRPK2 (human)): 34%; kinase still bound, per cent of control (STK17A (human)): 49%; kinase still bound, per cent of control (TSSK1B (human)): 100%; kinase still bound, per cent of control [4]: 0%; kinase still bound, per cent of control (VRK2 (human)): 100%"
CCc1nc(-c2cccc(C)c2)c(-c2ccnc(NC(=O)c3ccccc3)c2)s1,100,100,82,100,100,88,100,72,94,89,97,100,100,70,90,100,70,90,70,100,"kinase still bound, per cent of control (BRAF (human)): 40%; kinase still bound, per cent of control (MAP4K2 (human)): 93%; kinase still bound, per cent of control [3]: 100%; kinase still bound, per cent of control (MYO3A (human)): 60%; kinase still bound, per cent of control (NEK6 (human)): 100%; kinase still bound, per cent of control (PKN3 (M.tuberculosis)): 100%; kinase still bound, per cent of control (PRKCI (human)): 100%; kinase still bound, per cent of control (PRKCQ (human)): 100%; kinase still bound, per cent of control (RPS6KA5 KD2 (human)): 100%; kinase still bound, per cent of control (SGK110 (human)): 100%; kinase still bound, per cent of control (SRPK2 (human)): 73%; kinase still bound, per cent of control (STK17A (human)): 81%; kinase still bound, per cent of control (TSSK1B (human)): 87%; kinase still bound, per cent of control [4]: 100%; kinase still bound, per cent of control (VRK2 (human)): 63%"
CCN1CCN(Cc2ccc(NC(=O)c3ccc(C)c(/C=C/c4cnc5[nH]ccc5c4OC)c3)cc2C(F)(F)F)CC1,100,100,15,98,96,0.75,90,100,80,0.15,0.2,96,39,41,79,12,100,58,3.6,20,"kinase still bound, per cent of control (CSNK1A1 (human)): 87%; kinase still bound, per cent of control (MAP4K2 (human)): 0%; kinase still bound, per cent of control [3]: 26%; kinase still bound, per cent of control (MYO3A (human)): 28%; kinase still bound, per cent of control (NEK6 (human)): 100%; kinase still bound, per cent of control (PKN3 (M.tuberculosis)): 89%; kinase still bound, per cent of control (PRKCI (human)): 100%; kinase still bound, per cent of control (PRKCQ (human)): 31%; kinase still bound, per cent of control (RPS6KA5 KD2 (human)): 100%; kinase still bound, per cent of control (SGK110 (human)): 41%; kinase still bound, per cent of control (SRPK2 (human)): 28%; kinase still bound, per cent of control (STK17A (human)): 1.3%; kinase still bound, per cent of control (TSSK1B (human)): 100%; kinase still bound, per cent of control [4]: 12%; kinase still bound, per cent of control (VRK2 (human)): 92%"
